Here are results for 19 compounds from PubChem BioAssay (NCI).

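Cells were grown in 96-well plates and exposed to each compound for 48 hours at five concentrations; endpoints were interpolated linearly between bracketing concentrations, or set to the highest concentration if not reached. TGI denotes the concentration required for complete inhibition of growth.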

For one assay, the system named is MALME-3M melanoma. In words: NCI anticancer screen, dose series, 48 h.
For `CNc1ncnc2c1ncn2C1C=CC(COS(N)(=O)=O)C1` (configuration not stated), the TGI was more than 100 µM.

In turn, `CCOc1cc(NC(C)=O)ccc1C(=O)NN1C(=O)C(Cl)C1c1ccccc1` (configuration not stated) returned a TGI of 25.2 µM.

As for `COC1=C(OC)C(=O)C(Cc2c(Cl)nc3sc(C)cn23)=C(C)C1=O`, the TGI stood at 26.5 µM.

As to `CCCCCCCCCCCCCCCCCCNc1ccn(C2OC(COP(=O)(O)OCC3OC(n4cc(F)c(=O)[nH]c4=O)CC3O)C(O)C2O)c(=O)n1` (configuration not stated), the TGI is more than 100 µM.

Compound `O=C(CN1CCCCC1)Nc1ccc2sc3ccccc3c(=O)c2n1` gave a TGI of 49 µM.

`CCOC(=O)/C(C#N)=C\c1ccc(N(CCC(=O)O)CCC(=O)O)c(I)c1` came in with a TGI of more than 10 µM.

`O=C(NC1=NCC(CN2CCN(c3ccccc3)CC2)O1)Nc1ccccc1` (configuration not stated) displayed a TGI of more than 100 µM.

Consider `CC(=O)C(=C(c1ccccc1)c1ccccc1)c1ccccc1`, for which the TGI is more than 100 µM.

The compound `COC1(OC)c2no[n+]([O-])c2CCC1O` (configuration not stated) returned a TGI of more than 100 µM.

As to `C=CCNC(=O)NC(=O)CSC1=NNC2(C(=O)N1)c1ccccc1-c1ccccc12`, the TGI was more than 10 µM.

Turning to `O=C1/C(=C/c2cccc(F)c2)CCCc2ccccc21`, the TGI was determined as 23.8 µM.

Compound `Clc1ccc(NCc2nnc(CCCCCCCCc3nnc(CNc4ccc(Cl)cc4)o3)o2)cc1` had a TGI of more than 100 µM.

With `O=C(ON=C1c2ccccc2C(Br)C(Br)c2ccccc21)c1cc([N+](=O)[O-])cc([N+](=O)[O-])c1` (configuration not stated), the TGI is 33 µM.

`O=C1C(Cl)C2(CC(/C=C/c3ccccc3Cl)=NN2c2cccc(S(=O)(=O)O)c2)N1c1nc2ccccc2s1` (configuration not stated) displayed a TGI of more than 100 µM.

As to `O=C(CC(=O)N(C(=O)/C=C\c1ccccc1)c1ccc(Cl)cc1)N1N=C(c2ccccc2)C(N=Nc2cccc([N+](=O)[O-])c2)C1=O` (configuration not stated), the TGI was 44.5 µM.

Compound `Cc1cc(=O)[nH]c(-n2[nH]c(C)c(CCO)c2=O)n1` registered a TGI of more than 100 µM.

`CCOC(=O)c1cnc2oc3ccc(O)cc3c2c1C` gave a TGI of more than 100 µM.

As for `COC(=O)c1ccc(C)cc1CC1Cc2cc(C)ccc2C1=O` (configuration not stated), the TGI is more than 100 µM.

Regarding `NN(CC(=O)O)CC(=O)O`, the TGI was more than 100 µM.

A further assay relates to SF-295 CNS. In words: NCI anticancer screen, dose series, 48 h.
On to `CNc1ncnc2c1ncn2C1C=CC(COS(N)(=O)=O)C1` (configuration not stated), for which the TGI is more than 100 µM.

Regarding `CCOc1cc(NC(C)=O)ccc1C(=O)NN1C(=O)C(Cl)C1c1ccccc1` (configuration not stated), the TGI was 37.1 µM.

For the compound `COC1=C(OC)C(=O)C(Cc2c(Cl)nc3sc(C)cn23)=C(C)C1=O`, the TGI was determined as 32.1 µM.

`CCCCCCCCCCCCCCCCCCNc1ccn(C2OC(COP(=O)(O)OCC3OC(n4cc(F)c(=O)[nH]c4=O)CC3O)C(O)C2O)c(=O)n1` (configuration not stated) registered a TGI of more than 100 µM.

`O=C(CN1CCCCC1)Nc1ccc2sc3ccccc3c(=O)c2n1` showed a TGI of 36.6 µM.

For the compound `CCOC(=O)/C(C#N)=C\c1ccc(N(CCC(=O)O)CCC(=O)O)c(I)c1`, the TGI was more than 10 µM.

`O=C(NC1=NCC(CN2CCN(c3ccccc3)CC2)O1)Nc1ccccc1` (configuration not stated) yielded a TGI of more than 100 µM.

Compound `CC(=O)C(=C(c1ccccc1)c1ccccc1)c1ccccc1` returned a TGI of more than 100 µM.

`COC1(OC)c2no[n+]([O-])c2CCC1O` (configuration not stated) had a TGI of more than 100 µM.

The compound `C=CCNC(=O)NC(=O)CSC1=NNC2(C(=O)N1)c1ccccc1-c1ccccc12` yielded a TGI of more than 10 µM.

Take `O=C1/C(=C/c2cccc(F)c2)CCCc2ccccc21`: the TGI was 29.7 µM.

For the compound `Clc1ccc(NCc2nnc(CCCCCCCCc3nnc(CNc4ccc(Cl)cc4)o3)o2)cc1`, the TGI was more than 100 µM.

Regarding `O=C(ON=C1c2ccccc2C(Br)C(Br)c2ccccc21)c1cc([N+](=O)[O-])cc([N+](=O)[O-])c1` (configuration not stated), the TGI is more than 88.9 µM.

In the case of `O=C(CC(=O)N(C(=O)/C=C\c1ccccc1)c1ccc(Cl)cc1)N1N=C(c2ccccc2)C(N=Nc2cccc([N+](=O)[O-])c2)C1=O` (configuration not stated), the TGI is 25.2 µM.

With `Cc1cc(=O)[nH]c(-n2[nH]c(C)c(CCO)c2=O)n1`, the TGI is more than 100 µM.

`CCOC(=O)c1cnc2oc3ccc(O)cc3c2c1C` came in with a TGI of more than 100 µM.

`COC(=O)c1ccc(C)cc1CC1Cc2cc(C)ccc2C1=O` (configuration not stated): the TGI is more than 100 µM.

Turning to `NN(CC(=O)O)CC(=O)O`, the TGI is more than 100 µM.

The subject of a further assay is M14 melanoma. In words: NCI anticancer screen, dose series, 48 h.
Turning to `CNc1ncnc2c1ncn2C1C=CC(COS(N)(=O)=O)C1` (configuration not stated), the TGI was more than 100 µM.

Consider `CCOc1cc(NC(C)=O)ccc1C(=O)NN1C(=O)C(Cl)C1c1ccccc1` (configuration not stated), for which the TGI was 27 µM.

`COC1=C(OC)C(=O)C(Cc2c(Cl)nc3sc(C)cn23)=C(C)C1=O` displayed a TGI of 34.5 µM.

Take `CCCCCCCCCCCCCCCCCCNc1ccn(C2OC(COP(=O)(O)OCC3OC(n4cc(F)c(=O)[nH]c4=O)CC3O)C(O)C2O)c(=O)n1` (configuration not stated): the TGI was more than 78.1 µM.

For `O=C(CN1CCCCC1)Nc1ccc2sc3ccccc3c(=O)c2n1`, the TGI came to 41.4 µM.

For the compound `CCOC(=O)/C(C#N)=C\c1ccc(N(CCC(=O)O)CCC(=O)O)c(I)c1`, the TGI is more than 10 µM.

Take `O=C(NC1=NCC(CN2CCN(c3ccccc3)CC2)O1)Nc1ccccc1` (configuration not stated): the TGI was more than 100 µM.

As to `CC(=O)C(=C(c1ccccc1)c1ccccc1)c1ccccc1`, the TGI is more than 100 µM.

The compound `COC1(OC)c2no[n+]([O-])c2CCC1O` (configuration not stated) came in with a TGI of more than 100 µM.

`C=CCNC(=O)NC(=O)CSC1=NNC2(C(=O)N1)c1ccccc1-c1ccccc12` yielded a TGI of more than 10 µM.

Take `O=C1/C(=C/c2cccc(F)c2)CCCc2ccccc21`: the TGI turned out to be 26.8 µM.

`Clc1ccc(NCc2nnc(CCCCCCCCc3nnc(CNc4ccc(Cl)cc4)o3)o2)cc1` gave a TGI of more than 100 µM.

The compound `O=C(ON=C1c2ccccc2C(Br)C(Br)c2ccccc21)c1cc([N+](=O)[O-])cc([N+](=O)[O-])c1` (configuration not stated) displayed a TGI of 33.6 µM.

Compound `O=C1C(Cl)C2(CC(/C=C/c3ccccc3Cl)=NN2c2cccc(S(=O)(=O)O)c2)N1c1nc2ccccc2s1` (configuration not stated) returned a TGI of more than 100 µM.

Compound `O=C(CC(=O)N(C(=O)/C=C\c1ccccc1)c1ccc(Cl)cc1)N1N=C(c2ccccc2)C(N=Nc2cccc([N+](=O)[O-])c2)C1=O` (configuration not stated) displayed a TGI of more than 100 µM.

`Cc1cc(=O)[nH]c(-n2[nH]c(C)c(CCO)c2=O)n1` yielded a TGI of more than 100 µM.

In the case of `CCOC(=O)c1cnc2oc3ccc(O)cc3c2c1C`, the TGI is more than 100 µM.

For `COC(=O)c1ccc(C)cc1CC1Cc2cc(C)ccc2C1=O` (configuration not stated), the TGI was more than 100 µM.

As for `NN(CC(=O)O)CC(=O)O`, the TGI is more than 100 µM.

In a further assay the test system is HCC-2998 colon. Nature of the assay: NCI anticancer screen, dose series, 48 h.
In the case of `CNc1ncnc2c1ncn2C1C=CC(COS(N)(=O)=O)C1` (configuration not stated), the TGI is more than 100 µM.

Turning to `CCOc1cc(NC(C)=O)ccc1C(=O)NN1C(=O)C(Cl)C1c1ccccc1` (configuration not stated), the TGI was 32.3 µM.

Regarding `COC1=C(OC)C(=O)C(Cc2c(Cl)nc3sc(C)cn23)=C(C)C1=O`, the TGI was 39 µM.

Consider `CCCCCCCCCCCCCCCCCCNc1ccn(C2OC(COP(=O)(O)OCC3OC(n4cc(F)c(=O)[nH]c4=O)CC3O)C(O)C2O)c(=O)n1` (configuration not stated), for which the TGI is more than 100 µM.

`O=C(CN1CCCCC1)Nc1ccc2sc3ccccc3c(=O)c2n1`: the TGI was 36.8 µM.

The compound `CCOC(=O)/C(C#N)=C\c1ccc(N(CCC(=O)O)CCC(=O)O)c(I)c1` yielded a TGI of more than 10 µM.

Compound `O=C(NC1=NCC(CN2CCN(c3ccccc3)CC2)O1)Nc1ccccc1` (configuration not stated) gave a TGI of more than 100 µM.

Compound `CC(=O)C(=C(c1ccccc1)c1ccccc1)c1ccccc1` came in with a TGI of more than 100 µM.

Regarding `COC1(OC)c2no[n+]([O-])c2CCC1O` (configuration not stated), the TGI is more than 100 µM.

In turn, `C=CCNC(=O)NC(=O)CSC1=NNC2(C(=O)N1)c1ccccc1-c1ccccc12` returned a TGI of more than 10 µM.

Take `O=C1/C(=C/c2cccc(F)c2)CCCc2ccccc21`: the TGI came out at 27.8 µM.
